Results: ChEMBL document CHEMBL4431312, “Development of an Orally Available and Central Nervous System (CNS) Penetrant Toxoplasma gondii Calcium-Dependent Protein Kinase 1 (TgCDPK1) Inhibitor with Minimal Human Ether-a-go-go-Related Gene (hERG) Activity for the Treatment of Toxoplasmosis” (J Med Chem, 2016)
Values after ≈ are worked out from the molar mass of the structure shown.

Assays:
[1] = target: Voltage-gated inwardly rectifying potassium channel KCNH2 (Homo sapiens, UniProt Q12809)
in vitro [2] = conditions: human, CRL8155 cells
[3] = target: Proto-oncogene tyrosine-protein kinase Src (Gallus gallus, UniProt P00523)
[4] = target: T1, Calmodulin-domain protein kinase 1 (Toxoplasma gondii, UniProt Q9BJF5)
T1 sequence (Q9BJF5 whole entry): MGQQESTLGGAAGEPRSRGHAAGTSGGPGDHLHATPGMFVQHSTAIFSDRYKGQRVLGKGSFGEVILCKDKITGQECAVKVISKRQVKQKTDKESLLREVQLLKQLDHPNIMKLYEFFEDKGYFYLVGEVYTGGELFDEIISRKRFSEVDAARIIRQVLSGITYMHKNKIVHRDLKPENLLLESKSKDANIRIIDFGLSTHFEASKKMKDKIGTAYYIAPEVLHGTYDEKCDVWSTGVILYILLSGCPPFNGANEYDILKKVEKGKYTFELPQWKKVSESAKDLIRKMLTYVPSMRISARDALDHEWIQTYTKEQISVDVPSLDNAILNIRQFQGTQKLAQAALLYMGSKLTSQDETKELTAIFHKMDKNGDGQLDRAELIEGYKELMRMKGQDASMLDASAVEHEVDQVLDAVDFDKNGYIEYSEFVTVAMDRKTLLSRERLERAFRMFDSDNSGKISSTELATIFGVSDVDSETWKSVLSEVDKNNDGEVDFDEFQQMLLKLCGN

in vitro [5] = conditions: human, HepG2 cells
in vivo [6] = conditions: BALB/c, mouse, plasma, po, 10 mg/kg
in vivo [7] = conditions: BALB/c, mouse, plasma, po, 10 mg/kg; remark: listed apart in the source
Toxoplasma gondii = assay: microbe, parasite or virus in culture; conditions: 44 h
[8] = mouse, in vivo, po, 10 mg/kg
[9] = buffer, pH 6.5
in vivo [10] = conditions: BALB/c, mouse, plasma, po, 10 mg/kg; remark: listed apart in the source
in vivo [11] = conditions: BALB/c, mouse, plasma, po, 10 mg/kg; remark: listed apart in the source
in vivo [12] = conditions: BALB/c, mouse, plasma, po, 10 mg/kg; remark: listed apart in the source
[13] = mouse, in vivo, po, 10 mg/kg; remark: listed apart in the source

Sequence of Voltage-gated inwardly rectifying potassium channel KCNH2 (Q12809 whole entry): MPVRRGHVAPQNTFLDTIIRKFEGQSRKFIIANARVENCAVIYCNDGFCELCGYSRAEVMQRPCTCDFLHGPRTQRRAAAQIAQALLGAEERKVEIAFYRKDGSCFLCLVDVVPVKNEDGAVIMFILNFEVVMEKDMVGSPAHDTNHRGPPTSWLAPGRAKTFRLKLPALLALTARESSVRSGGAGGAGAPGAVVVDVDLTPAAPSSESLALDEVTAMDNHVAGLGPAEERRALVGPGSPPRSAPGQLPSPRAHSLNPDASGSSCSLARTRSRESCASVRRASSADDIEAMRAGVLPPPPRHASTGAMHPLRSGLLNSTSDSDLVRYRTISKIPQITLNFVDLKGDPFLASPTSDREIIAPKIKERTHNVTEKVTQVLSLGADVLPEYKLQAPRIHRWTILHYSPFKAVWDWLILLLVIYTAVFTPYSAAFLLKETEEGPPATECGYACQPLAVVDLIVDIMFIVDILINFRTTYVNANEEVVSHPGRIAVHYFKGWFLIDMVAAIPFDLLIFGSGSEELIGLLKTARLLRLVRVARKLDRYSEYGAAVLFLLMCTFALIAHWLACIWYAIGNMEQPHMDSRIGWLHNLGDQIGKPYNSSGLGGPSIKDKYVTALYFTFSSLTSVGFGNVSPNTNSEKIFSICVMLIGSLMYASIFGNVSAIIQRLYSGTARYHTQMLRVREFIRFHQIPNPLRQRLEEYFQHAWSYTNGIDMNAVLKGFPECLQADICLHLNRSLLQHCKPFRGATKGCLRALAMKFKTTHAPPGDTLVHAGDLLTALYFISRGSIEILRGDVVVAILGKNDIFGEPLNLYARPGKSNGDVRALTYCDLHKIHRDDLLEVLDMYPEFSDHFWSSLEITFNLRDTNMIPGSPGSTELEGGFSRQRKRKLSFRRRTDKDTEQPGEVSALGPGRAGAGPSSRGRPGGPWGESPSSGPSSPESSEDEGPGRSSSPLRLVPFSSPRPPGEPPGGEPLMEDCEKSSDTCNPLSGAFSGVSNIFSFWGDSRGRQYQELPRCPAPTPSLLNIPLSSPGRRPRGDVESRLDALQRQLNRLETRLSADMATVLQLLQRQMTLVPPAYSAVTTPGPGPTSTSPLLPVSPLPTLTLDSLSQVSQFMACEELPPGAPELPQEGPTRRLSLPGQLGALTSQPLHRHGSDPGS

GI50 at 48 h (in vitro [2]) [µM] | IC50 [3] [µM] | GI50 at 48 h (in vitro [5]) [µM] | SMILES | IC50 [1] [µM] | IC50 [4] [µM] | AUC(0-inf) (in vivo [6]) [µM·h] | CL/F (in vivo [7]) [mL/min] | EC50 (Toxoplasma gondii) [µM] | Cmax [8] [nM] | solubility [9] [µM] | Cmax (in vivo [10]) [nM] | half-life (in vivo [11]) [h] | Tmax (in vivo [12]) [h] | Tmax [13] [h]
> 10 | > 10 | > 10 | CCOc1ccc2cc(-c3nn(CC(C)C)c4ncnc(N)c34)ccc2c1 | > 10 | – | – | – | – | – | – | – | – | – | –
> 10 | 1.1 | > 10 | CCOc1ccc2cc(-c3nn(CC4CN(C(C)=O)C4)c4ncnc(N)c34)ccc2c1 | > 10 | 0.004 | – | – | – | – | – | – | – | – | –
> 10 | > 10 | > 10 | CN1CCC(Cn2nc(-c3ccc4cc(OC5CCC5)ccc4c3)c3c(N)ncnc32)CC1 | 0.2 | – | – | – | – | – | – | – | – | – | –
> 10 | > 10 | > 10 | CCOc1ccc2cc(-c3nn(CC4CNC4)c4ncnc(N)c34)ccc2c1 | 1.7 | 0.0032 | – | – | – | – | – | – | – | – | –
> 10 | > 10 | > 10 | CCOc1ccc2cc(-c3nn(CC4CCN(C(C)C)CC4)c4ncnc(N)c34)ccc2c1 | 0.3 | 0.01 | – | – | – | – | – | – | – | – | –
> 10 | > 10 | > 10 | Nc1ncnc2c1c(-c1ccc3cc(OC4CC4)ccc3c1)nn2CC(O)(C(F)(F)F)C(F)(F)F | – | – | – | – | – | – | – | – | – | – | –
> 10 | > 10 | > 10 | CCOc1ccc2cc(-c3nn(CC4CN(C)C4)c4ncnc(N)c34)ccc2c1 | 1.4 | 0.006 | – | – | – | – | – | – | – | – | –
> 10 | > 10 | > 10 | CCOc1ccc2cc(-c3nn(CC4CCOCC4)c4ncnc(N)c34)ccc2c1 | > 10 | 0.002 | – | – | – | – | – | – | – | – | –
> 10 | > 10 | > 10 | CN(C)CC(C)(C)Cn1nc(-c2ccc3nc(OC4CC4)ccc3c2)c2c(N)ncnc21 | 0.082 | – | – | – | – | – | – | – | – | – | –

The remaining lines, values behind:

SMILES | GI50 at 48 h (in vitro [2]) [µM] | IC50 [3] [µM] | GI50 at 48 h (in vitro [5]) [µM] | IC50 [1] [µM] | IC50 [4] [µM] | AUC(0-inf) (in vivo [6]) [µM·h] | CL/F (in vivo [7]) [mL/min] | EC50 (Toxoplasma gondii) [µM] | Cmax [8] [nM] | solubility [9] [µM] | Cmax (in vivo [10]) [nM] | half-life (in vivo [11]) [h] | Tmax (in vivo [12]) [h] | Tmax [13] [h]
CN1CCC(Cn2nc(-c3ccc4cc(OC5CC5)ccc4c3)c3c(N)ncnc32)CC1 | > 10 | > 10 | – | 0.37 | 0.0015 | – | – | – | – | – | – | – | – | –
CCOc1ccc2cc(-c3nn(CC4CCOCC4)c4ncnc(N)c34)ccc2n1 | > 10 | > 10 | > 10 | > 10 | – | – | – | – | – | – | – | – | – | –
CC1(Cn2nc(-c3ccc4cc(OC5CC5)ccc4c3)c3c(N)ncnc32)COC1 | > 10 | > 10 | > 10 | 1.9 | 0.0021 | – | – | – | – | – | – | – | – | –
Nc1ncnc2c1c(-c1ccc3cc(OC4CC4)ccc3c1)nn2CC1CCOCC1 | > 10 | 0.37 | > 10 | > 10 | 0.0024 | – | – | – | – | – | – | – | – | –
CC1(Cn2nc(-c3ccc4nc(OC5CC5)ccc4c3)c3c(N)ncnc32)COC1 | > 10 | > 10 | > 10 | > 10 | – | – | – | – | – | – | – | – | – | –
CC(C)(CO)Cn1nc(-c2ccc3cc(OC4CC4)ccc3c2)c2c(N)ncnc21 | > 10 | 3.1 | > 10 | > 10 | – | 0.517 | 6.7 | 0.056 | 390 | – | – | – | – | –
CC(C)(CO)Cn1nc(-c2ccc3nc(OCC(F)(F)F)ccc3c2)c2c(N)ncnc21 | > 10 | > 10 | > 10 | – | 0.017 | – | – | – | – | – | – | – | – | –
CC(C)(CO)Cn1nc(-c2ccc3nc(OC4CC4)ccc3c2)c2c(N)ncnc21 | > 10 | 7.4 | > 10 | > 10 | – | 0.065 | 21 | – | – | 8 (≈ 3.24 µg/mL) | 3900 | 0.683 | – | –
CCOc1ccc2cc(-c3nn(CC4CCN(C)CC4)c4ncnc(N)c34)ccc2n1 | > 10 | > 10 | > 10 | 10 | 0.0061 | – | 1.8 | – | – | – | 260 | 3.72 | 3.33 | –
CN1CCC(Cn2nc(-c3ccc4cc(OCC5CC5)ccc4c3)c3c(N)ncnc32)CC1 | > 10 | > 10 | > 10 | 0.9 | – | – | – | – | – | – | – | – | – | –
CCOc1ccc2cc(-c3nn(CC4CCN(C(C)=O)CC4)c4ncnc(N)c34)ccc2c1 | > 10 | > 10 | > 10 | > 10 | – | 1.57 | 2.5 | – | – | 48 (≈ 21.3 µg/mL) | 890 | – | – | –
CC(C)Cn1nc(-c2ccc3nc(OC4CC4)ccc3c2)c2c(N)ncnc21 | > 10 | > 10 | > 10 | > 10 | – | – | – | – | – | – | – | – | – | –
Nc1ncnc2c1c(-c1ccc3nc(OC4CC4)ccc3c1)nn2CC1CCOCC1 | > 10 | > 10 | > 10 | > 10 | – | 1.12 | 110 | 0.081 | 880 | – | – | – | – | 0.5
CC(C)Cn1nc(-c2ccc3cc(OC4CC4)ccc3c2)c2c(N)ncnc21 | > 10 | 3.7 | – | > 10 | 0.0011 | – | – | – | – | – | – | – | – | –
CN1CCC(Cn2nc(-c3ccc4nc(OC5CC5)ccc4c3)c3c(N)ncnc32)CC1 | – | > 10 | > 10 | 1.7 | – | – | – | – | – | – | – | – | – | –
CN1CCC(Cn2nc(-c3ccc4nc(OCC(F)(F)F)ccc4c3)c3c(N)ncnc32)CC1 | – | – | – | 0.5 | – | – | – | – | – | – | – | – | – | –
CCOc1ccc2cc(-c3nn(CC4CCN(C)CC4)c4ncnc(N)c34)ccc2c1 | > 10 | > 10 | > 10 | 0.4 | – | – | 0.7 | – | 750 | – | – | – | 2 | –
CCOc1ccc2cc(-c3nn(CC(C)(C)O)c4ncnc(N)c34)ccc2n1 | > 10 | > 10 | > 10 | > 10 | – | – | 0.2 | – | – | – | – | – | – | –
CCOc1ccc2cc(-c3nn(CC(C)(C)O)c4ncnc(N)c34)ccc2c1 | > 10 | > 10 | > 10 | – | – | – | – | – | – | – | – | – | – | –
CN1CCC(Cn2nc(-c3ccc4cc(OC5COC5)ccc4c3)c3c(N)ncnc32)CC1 | > 10 | > 10 | > 10 | – | 0.01 | – | – | – | – | – | – | – | – | –
COCCOc1ccc2cc(-c3nn(CC4CCN(C)CC4)c4ncnc(N)c34)ccc2c1 | > 10 | > 10 | > 10 | – | – | – | – | – | – | – | – | – | – | –
